Molecular target: T1, human mGluR4 (Homo sapiens, UniProt Q14833)
T1 construct: expressed in transfected cells; host or cells: Chinese Hamster Ovary (CHO) cells
Test: Potentiation of human mGluR4 in transfected CHO cells, Ca2+-sensitive fluorescent dye, EC20 agonist
Type: cell-based
Conditions: values in E-notation, unit inferred, read-out: hEC50
Procedure: The disclosed compounds and compositions can be evaluated for their ability to act as a potentiator of metabotropic glutamate receptor activity, in particular mGluR4 activity, by any suitable known methodology known in the art. For example, Chinese Hamster Ovary (CHO) cells transfected with human mGluR4 or HEK cells co-transfected with rat mGluR4 and the G-protein regulated Inwardly Rectifying Potassium channel (GIRK) were plated in clear bottom assay plates for assay in a Hamamatsu FDSS Fluorometric Plate Reader. The cells were loaded with either a Ca2+-sensitive fluorescent dye or the thallium responsive dye and the plates were washed and placed into a suitable kinetic plate reader. For human mGluR4 assays, a fluorescence baseline was established for 3-5 seconds, the disclosed compounds were then added to the cells, and the response in cells was measured. Approximately two and a half minutes later, a concentration of mGluR4 orthosteric agonist (e.g. glutamate or L-AP4) eliciting approximately 20% (EC20) of the maximal agonist response was added to the cells, and the response was measured. Two minutes later, a concentration of mGluR4 agonist (e.g. glutamate or L-AP4) eliciting 80% (EC80) of the maximal agonist response was added to the cells, and the response was measured. For rat mGluR4/GIRK experiments, a baseline was established for approximately five seconds, disclosed compounds were added, and either an EC20 or EC80 concentration of agonist was added approximately two and one half minutes later.
The above described assay operated in two modes. In the first mode, a range of concentrations of the disclosed compounds are added to cells, followed by a single fixed concentration of agonist. If the compound acts as a potentiatior, an EC50 value for potentiation and a maximum extent of potentiation by the compound at this concentration of agonist is determined by non-linear curve fitting. If the compound acts as a noncompetitive antagonist, an IC50 value is determined by non-linear curve fitting. In the second mode, several fixed concentrations of the disclosed compounds are added to various wells on a plate, followed by a range in concentrations of agonist for each concentration of disclosed compound. The EC50 values for the agonist at each concentration of compound are determined by non-linear curve fitting. A decrease in the EC50 value of the agonist with increasing concentrations of the sample compound (a leftward shift of the agonist concentration-response curve) is an indication of the degree of mGluR4 potentiation at a given concentration of the sample compound. A decrease in the maximal response of the agonist with increasing concentrations of the sample compounds, with or without a rightward shift in agonist potency, is an indication of the degree of noncompetitive antagonism at mGluR4. The second mode also indicates whether the sample compounds also affect the maximum response to mGluR4 to agonists.

T1 sequence (Q14833 33-912): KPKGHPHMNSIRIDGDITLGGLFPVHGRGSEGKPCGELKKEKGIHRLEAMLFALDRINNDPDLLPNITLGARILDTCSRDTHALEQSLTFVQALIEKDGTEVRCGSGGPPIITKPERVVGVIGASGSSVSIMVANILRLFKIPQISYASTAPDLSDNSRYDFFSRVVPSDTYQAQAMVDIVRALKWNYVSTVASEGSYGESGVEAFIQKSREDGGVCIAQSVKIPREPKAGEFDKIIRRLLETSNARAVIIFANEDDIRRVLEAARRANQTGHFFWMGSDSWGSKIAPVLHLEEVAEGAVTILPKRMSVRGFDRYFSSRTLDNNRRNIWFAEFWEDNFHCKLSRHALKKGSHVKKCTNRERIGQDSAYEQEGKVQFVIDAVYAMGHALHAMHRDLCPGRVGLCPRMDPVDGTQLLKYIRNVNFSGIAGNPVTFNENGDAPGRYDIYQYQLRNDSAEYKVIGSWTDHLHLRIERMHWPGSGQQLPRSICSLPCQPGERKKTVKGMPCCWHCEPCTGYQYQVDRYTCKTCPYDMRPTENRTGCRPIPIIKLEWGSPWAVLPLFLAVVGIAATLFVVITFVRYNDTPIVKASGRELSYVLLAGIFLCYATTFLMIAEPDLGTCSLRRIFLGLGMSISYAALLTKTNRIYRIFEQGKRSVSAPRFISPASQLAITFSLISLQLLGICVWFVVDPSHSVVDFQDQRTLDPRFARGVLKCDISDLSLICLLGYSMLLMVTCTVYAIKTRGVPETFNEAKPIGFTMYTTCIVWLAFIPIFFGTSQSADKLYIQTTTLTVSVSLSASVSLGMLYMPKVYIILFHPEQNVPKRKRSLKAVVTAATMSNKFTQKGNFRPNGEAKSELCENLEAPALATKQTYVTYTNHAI

Row | EC50 | Structure (SMILES)
1 | 2.48 µM | Clc1ccccc1CSc1ccc2[nH]c(-c3ccccn3)nc2c1 [Example 1, 5-(2-Chlorobenzylthio)-2-(pyridin-2-yl)-1H-benzo[d]imidazole]
2 | 0.421 µM | O=S(=O)(Cc1ccccc1Cl)c1ccc2[nH]c(-c3ccccn3)nc2c1 [Example 2, 5-(2-Chlorobenzylsulfonyl)-2-(pyridin-2-yl)-1H-benzo[d]imidazole]
3 | 2.45 µM | Fc1ccccc1CSc1ccc2[nH]c(-c3ccccn3)nc2c1 [Example 3, 5-((2-fluorobenzyl)thio)-2-(pyridin-2-yl)-1H-benzo[d]imidazole]
4 | 0.33 µM | O=S(=O)(Cc1ccccc1F)c1ccc2[nH]c(-c3ccccn3)nc2c1 [Example 4, 5-((2-fluorobenzyl)sulfonyl)-2-(pyridin-2-yl)-1H-benzo[d]imidazole]
5 | 0.35 µM | O=S(=O)(Cc1ccccc1Cl)c1cc2nc(-c3ccccn3)[nH]c2cc1Cl [Example 5, 6-chloro-5-((2-chlorobenzyl)sulfonyl)-2-(pyridin-2-yl)-1H-benzo[d]imidazole]
6 | 0.0568 µM | O=S(=O)(Cc1ccc(Cl)cc1Cl)c1ccc2[nH]c(-c3ccccn3)nc2c1 [Example 6, 5-((2,4-dichlorobenzyl)sulfonyl)-2-(pyridin-2-yl)-1H-benzo[d]imidazole]
7 | 0.434 µM | O=S(=O)(Cc1cc(F)ccc1F)c1ccc2[nH]c(-c3ccccn3)nc2c1 [Example 7, 5-((2,5-difluorobenzyl)sulfonyl)-2-(pyridin-2-yl)-1H-benzo[d]imidazole]
8 | 0.209 µM | O=S(=O)(Cc1ccc(F)cc1F)c1ccc2[nH]c(-c3ccccn3)nc2c1 [Example 8, 5-((2,4-difluorobenzyl)sulfonyl)-2-(pyridin-2-yl)-1H-benzo[d]imidazole]
9 | 0.155 µM | O=S(=O)(Cc1c(F)cccc1F)c1ccc2[nH]c(-c3ccccn3)nc2c1 [Example 9, 5-((2,6-difluorobenzyl)sulfonyl)-2-(pyridin-2-yl)-1H-benzo[d]imidazole]
10 | 0.462 µM | O=S(=O)(Cc1cc(F)c(F)cc1F)c1ccc2[nH]c(-c3ccccn3)nc2c1 [Example 10, 2-(pyridin-2-yl)-5-((2,4,5-trifluorobenzyl)sulfonyl)-1H-benzo[d]imidazole]
11 | 0.0754 µM | O=S(=O)(Cc1ccccc1Cl)c1ccc2[nH]c(-c3cccc(Cl)n3)nc2c1 [Example 11, 5-((2-chlorobenzyl)sulfonyl)-2-(6-chloropyridin-2-yl)-1H-benzo[d]imidazole]
12 | 1.45 µM | O=S(=O)(Cc1ccccc1Cl)c1ccc2[nH]c(-c3nccs3)nc2c1 [Example 12, 2-(5-((2-chlorobenzyl)sulfonyl)-1H-benzo[d]imidazol-2-yl)thiazole]
13 | 1.84 µM | O=S(=O)(Cc1ccccc1Cl)c1ccc2[nH]c(-c3cscn3)nc2c1 [Example 13, 4-(5-((2-chlorobenzyl)sulfonyl)-1H-benzo[d]imidazol-2-yl)thiazole]
14 | 0.45 µM | O=S(=O)(Cc1ccccc1Cl)c1ccc2[nH]c(-c3ncc(F)cc3F)nc2c1 [Example 14, 5-((2-chlorobenzyl)sulfonyl)-2-(3,5-difluoropyridin-2-yl)-1H-benzo[d]imidazole]
15 | 0.927 µM | O=S(=O)(Cc1ccccc1Cl)c1ccc2[nH]c(-c3cccc(F)n3)nc2c1 [Example 15, 5-((2-chlorobenzyl)sulfonyl)-2-(6-fluoropyridin-2-yl)-1H-benzo[d]imidazole]
16 | 0.221 µM | O=S(=O)(Cc1ccccc1Cl)c1ccc2[nH]c(-c3ncccc3F)nc2c1 [Example 16, 5-((2-chlorobenzyl)sulfonyl)-2-(3-fluoropyridin-2-yl)-1H-benzo[d]imidazole]
17 | 2.41 µM | [O-][S+](Cc1ccccc1Cl)c1cc2nc(-c3ccccn3)[nH]c2cc1Cl (stereo not shown) [Example 17, 6-chloro-5-((2-chlorobenzyl)sulfinyl)-2-(pyridin-2-yl)-1H-benzo[d]imidazole]
18 | 0.272 µM | O=S(=O)(Cc1ccc(Cl)cc1F)c1ccc2[nH]c(-c3cccc[n+]3O)nc2c1 [Example 18, 2-(5-((4-chloro-2-fluorobenzyl)sulfonyl)-1H-benzo[d]imidazol-2-yl)-1-hydroxypyridin-1-ium]
19 | 0.0823 µM | O=S(=O)(Cc1ccc(Cl)cc1F)c1ccc2[nH]c(-c3ccccn3)nc2c1 [Example 19, 5-((4-chloro-2-fluorobenzyl)sulfonyl)-2-(pyridin-2-yl)-1H-benzo[d]imidazole]
20 | 1.06 µM | O=S(=O)(Cc1cccc(Cl)c1F)c1ccc2[nH]c(-c3cccc[n+]3O)nc2c1 [Example 20, 2-(5-((3-chloro-2-fluorobenzyl)sulfonyl)-1H-benzo[d]imidazol-2-yl)-1-hydroxypyridin-1-ium]
21 | 0.194 µM | O=S(=O)(Cc1cccc(Cl)c1F)c1ccc2[nH]c(-c3ccccn3)nc2c1 [Example 21, 5-((3-chloro-2-fluorobenzyl)sulfonyl)-2-(pyridin-2-yl)-1H-benzo[d]imidazole]
22 | 0.0553 µM | O=S(=O)(Cc1c(F)cccc1Cl)c1ccc2[nH]c(-c3ccccn3)nc2c1 [Example 22, 5-((2-chloro-6-fluorobenzyl)sulfonyl)-2-(pyridin-2-yl)-1H-benzo[d]imidazole]
23 | 1.52 µM | O=S(=O)(Cc1ccc(Cl)cc1Cl)c1cc2nc(-c3ccccn3)[nH]c2cc1Cl [Example 23, 6-chloro-5-((2,4-dichlorobenzyl)sulfonyl)-2-(pyridin-2-yl)-1H-benzo[d]imidazole]
24 | 0.112 µM | O=S(=O)(Cc1c(F)cccc1Cl)c1cc2nc(-c3ccccn3)[nH]c2cc1Cl [Example 24, 6-chloro-5-((2-chloro-6-fluorobenzyl)sulfonyl)-2-(pyridin-2-yl)-1H-benzo[d]imidazole]
25 | 0.341 µM | O=S(=O)(Cc1ccccc1Cl)c1cc2nc(-c3ccccn3)[nH]c2cc1F [Example 25, 5-((2-chlorobenzyl)sulfonyl)-6-fluoro-2-(pyridin-2-yl)-1H-benzo[d]imidazole]
26 | 0.446 µM | O=S(=O)(Cc1ccc(Cl)cc1F)c1cc2nc(-c3ccccn3)[nH]c2cc1Cl [Example 26, 6-chloro-5-((4-chloro-2-fluorobenzyl)sulfonyl)-2-(pyridin-2-yl)-1H-benzo[d]imidazole]
27 | 0.427 µM | O=C(Nc1ccc(S(=O)(=O)Cc2ccccc2Cl)cc1)c1ccco1 [Example 28, N-(4-((2-chlorobenzyl)sulfonyl)phenyl)furan-2-carboxamide]
28 | 1.1 µM | O=C(Nc1ccc(S(=O)(=O)Cc2ccccc2Cl)cc1)c1cccc(Cl)n1 [Example 30, 6-chloro-N-(4-((2-chlorobenzyl)sulfonyl)phenyl)picolinamide]
29 | 0.73 µM | O=C(Nc1ccc(S(=O)(=O)Cc2ccccc2Cl)cc1)c1ncccc1F [Example 31, N-(4-((2-chlorobenzyl)sulfonyl)phenyl)-3-fluoropicolinamide]
30 | 5.4 µM | Cc1cccc(C(=O)Nc2ccc(S(=O)(=O)Cc3ccccc3Cl)cc2)n1 [Example 32, N-(4-((2-chlorobenzyl)sulfonyl)phenyl)-6-methylpicolinamide]

Row | Structure (SMILES) | EC50
31 | O=C(Nc1ccc(S(=O)(=O)Cc2ccccc2Cl)cc1)c1ccccn1 [Example 27, N-(4-((2-chlorobenzyl)sulfonyl)phenyl)picolinamide] | 0.237 µM

— US8912336B2, “Aryl and heteroaryl sulfones as mGluR4 allosteric potentiators, compositions, and methods of treating neurological dysfunction” (Vanderbilt University, priority 2009, dated 2014)
